{"source": "patent US20200023038A1", "about": "“METHOD OF TREATING NEOPLASIAS” (PARANTA BIOSCIENCES LIMITED, priority 2015, published 2020)", "key": {"[1]": {"conditions": "background statement; cited from earlier work"}, "[2]": {"test_system": "TAK1", "assay": "Western blot of phospho-TAK1", "format": "cell-based, human", "method": "Cell lysates were prepared using RIPA buffer with the addition of Halt Protease and Phosphatase Inhibitor Cocktails. Gel electrophoresis and transfer was performed using the BioRad MiniProtean System according to manufacturer's instructions. Phospho-TAK1 was detected using the combination of Rabbit anti-Phospho-TAK1 and anti-Rabbit IgG, HRP linked primary and secondary antibodies respectively."}, "[3]": {"test_system": "A549 lung adenocarcinoma cells", "assay": "Sensitization of cells to platinum/alkylating agent with TGFBR1 and ACVR1B inhibitor", "format": "cell-based, human", "method": "10,000 cells per well were plated in to a 96 well plate. […] Plates are left to incubate for 3 days with an Alamar Blue reading performed at end point.\n(§1) 5000 cells per well were plated in quadruplicates in RPMI with 1% heat-inactivated NCS (HiNCS) and Glutamax and allowed to adhere overnight. Media was then removed and either vehicle or 5 μM SB-505124 was added and incubated for 24 hours. Media was then removed and replaced with media containing increasing concentrations of carboplatin with either vehicle or 5 μM SB-505124. After 3 days of incubation Alamar Blue was added and plates were incubated for 2.5 hours before being read using Fluostar Optima Plate Reader."}, "[4]": {"test_system": "NCI-H358", "assay": "Sensitization of cells to platinum with TGFBR1 and ACVR1B inhibitor", "format": "cell-based, human", "conditions": "NCI-H358, 5 μM SB-505124 pre-treatment 24 hours, then carboplatin 3 days", "method": "as §1"}, "[5]": {"test_system": "A549 lung adenocarcinoma cells", "assay": "DNA damage response, γH2AX confocal immunofluorescence", "format": "cell-based, human", "conditions": "24 hr carboplatin, increasing concentrations", "method": "DNA damage induced by platinum was visualised by confocal immunofluorescence microscopy. A549 lung adenocarcinoma cells were treated with appropriate primary and secondary antibodies to visualise γH2AX and the DNA counterstain DAPI following 24 hr treatment with increasing concentrations of carboplatin."}, "[6]": {"test_system": "A549 lung adenocarcinoma cell line", "assay": "Innate platinum responsiveness, Alamar Blue viability over carboplatin concentrations", "format": "cell-based, human", "conditions": "chemonaive A549, 3 days", "method": "The A549 lung adenocarcinoma cell line was originally derived from a smoker prior to treatment with chemotherapy. This chemonaive cell line carrying a common KRAS mutation was chosen as the primary cell line for modelling innate platinum responsiveness. Platinum responsiveness of A549 lung adenocarcinoma cell line was assessed against a wide range of carboplatin concentrations. […] 10,000 cells per well were plated in to a 96 well plate. […] Plates are left to incubate for 3 days with an Alamar Blue reading performed at end point. Curves of cell death in response to the respective alkylating agent were generated by graphing fluorescence (as a measure of cell viability) vs the alkylating agent concentration."}, "[7]": {"test_system": "A549 flank xenografts", "assay": "In vivo modelling of platinum resistance, xenograft", "set-up": "species or system athymic nude mice", "conditions": "carboplatin 60 mg/kg day 0 or 2 μg FST day −1, +1, +3, +5, intraperitoneally", "method": "Follistatin (FST) is a molecule that is known for its role in regulating the activities of TGFβ superfamily members, including activin and GDF11, both of which were identified as important players in chemoresistance of non-small cell lung carcinoma (NSCLC) cells (see Example 2). Therefore, the effects of FST on inducing sensitization of NSCLC cells to platinum therapy were assessed in an in vivo xenograft model. Athymic nude mice bearing A549 flank xenografts were treated with combinations of vehicle control, 60 mg/kg carboplatin on day 0, and/or 2 μg FST on day -1, +1, +3 and +5. Five mice were randomized in to each of the treatment groups and treatments started when the tumour size was 200 mm^3. Tumour volumes were measured daily and the animals were culled when the tumour size reached over 500 mm^3. Athymic nude mice bearing A549 flank xenografts were treated with combinations of vehicle control, 60 mg/kg carboplatin on day 0, and/or 2 μg FST on day -1, +1, +3 and +5 administered intraperitoneally. Recombinant human Follistatin 288 (FST) was used in all experiments. FST was provided by […] Biosciences Ltd."}, "[8]": {"test_system": "LX22CL cells", "assay": "Innate platinum responsiveness, Alamar Blue viability over carboplatin concentrations", "format": "cell-based, human", "conditions": "chemonaive SCLC line LX22CL, 3 days"}}, "note": "“Also recorded” adds a separate entry of the source.", "data": [{"smiles": "N.N.[Cl][Pt][Cl]", "note": "[trans-DDP, trans-diamminedichloroplatinum (II)]", "values": [{"measurement": "activity against tumours", "setting": "[1]", "result": "ineffective against tumours"}]}, {"smiles": "Cc1cccc(-c2[nH]c(C(C)(C)C)nc2-c2ccc3c(c2)OCO3)n1", "note": "[SB-505124]", "values": [{"measurement": "activation of TAK1 (phosphorylated TAK1 level)", "setting": "[2]; A549 and NCI-H358 cells, SB-505124 pre-treatment then carboplatin", "result": "inhibited the activation of TAK1"}, {"measurement": "sensitization to platinum (carboplatin)", "setting": "[3]; A549, 5 μM SB-505124 pre-treatment 24 hours, then carboplatin 3 days", "result": "induced sensitization to platinum; also recorded: sensitized"}, {"measurement": "sensitization to busulfan", "setting": "[3]; A549, SB-505124 pre-treatment then busulfan range", "result": "showed sensitization"}, {"measurement": "sensitization to cisplatin", "setting": "[3]; A549, SB-505124 pre-treatment then cisplatin range", "result": "showed sensitization"}, {"measurement": "sensitization to platinum (carboplatin)", "setting": "[4]", "result": "showed sensitization to platinum; also recorded: sensitized"}]}, {"smiles": "N.N.O=C([O-])C1(C(=O)[O-])CCC1.[Pt+2]", "note": "[carboplatin]", "values": [{"measurement": "phosphorylated TAK1 (activated form) levels", "setting": "[2]; cells treated with carboplatin", "result": "upregulated"}, {"measurement": "DNA damage (γH2AX)", "setting": "[5]", "result": "effect DNA damage, at much lower concentrations than is required to induce cell death"}, {"measurement": "platinum responsiveness (survival against carboplatin concentration)", "setting": "[6]", "result": "exhibits an active resistance mechanism"}, {"measurement": "tumour growth, agent alone", "setting": "[7]", "result": "did not affect tumour growth"}, {"measurement": "platinum responsiveness (survival against carboplatin concentration)", "setting": "[8]", "result": "shows sensitivity to carboplatin"}]}]}
